Experimental data reported in ChEMBL document CHEMBL3867426, “Synthesis and biological evaluation of 6-fluoro-3-phenyl-7-piperazinyl quinolone derivatives as potential topoisomerase I inhibitors” (Eur J Med Chem, 2016).
Calls of active or inactive are those of the source. The rule behind the calls is not given here.

Tests used:
cells [1] = details: Homo sapiens, HepG2, 48 h
cells [2] = details: Homo sapiens, A549, 48 h
[3] = Antiproliferative activity against human BGC823 cells after 48 hrs by MTT assay; type: functional, cell-based; details: BGC-823, 48 h
cells [4] = details: Homo sapiens, HeLa, 48 h
[5] = Solubility of the compound in Tris/glycine/SDS buffer at pH 7.9; type: physicochemical
[6] = biological target: T1, DNA topoisomerase 1 (Homo sapiens) (UniProt P11387); test: Inhibition of DNA topoisomerase 1 (unknown origin)-mediated relaxation of supercoiled pBR322 plasmid DNA at 100 uM after 30 mins by agarose gel electrophoresis
T1 sequence (whole entry): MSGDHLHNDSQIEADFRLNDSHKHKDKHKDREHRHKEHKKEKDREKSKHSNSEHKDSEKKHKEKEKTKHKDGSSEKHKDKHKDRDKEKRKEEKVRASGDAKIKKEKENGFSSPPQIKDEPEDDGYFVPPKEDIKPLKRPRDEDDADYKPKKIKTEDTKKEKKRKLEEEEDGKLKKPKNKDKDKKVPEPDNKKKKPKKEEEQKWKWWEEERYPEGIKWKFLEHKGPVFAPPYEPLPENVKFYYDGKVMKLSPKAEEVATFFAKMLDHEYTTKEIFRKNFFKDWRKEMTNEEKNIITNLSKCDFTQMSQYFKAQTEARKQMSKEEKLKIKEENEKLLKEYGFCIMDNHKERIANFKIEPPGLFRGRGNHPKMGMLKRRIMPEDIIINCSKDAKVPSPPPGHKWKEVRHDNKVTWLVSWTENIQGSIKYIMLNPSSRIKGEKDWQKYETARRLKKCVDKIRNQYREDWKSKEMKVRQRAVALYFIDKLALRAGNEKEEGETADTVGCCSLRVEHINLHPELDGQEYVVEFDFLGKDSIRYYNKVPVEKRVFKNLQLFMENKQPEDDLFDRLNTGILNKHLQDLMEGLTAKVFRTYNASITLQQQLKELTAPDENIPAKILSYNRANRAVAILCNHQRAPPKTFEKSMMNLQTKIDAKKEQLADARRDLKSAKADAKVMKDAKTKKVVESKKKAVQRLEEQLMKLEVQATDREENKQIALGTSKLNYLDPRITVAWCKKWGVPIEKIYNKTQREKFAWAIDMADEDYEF

Mus musculus [7] = test: Toxicity in BALB/c nude mouse xenografted with human A549 cells assessed as mortality at 20 mg/kg, iv administered once every 3 days for 23 days; type: organism-based; details: in vivo
[8] = Antitumor activity against human A549 cells xenografted in BALB/c nude mouse assessed as reduction in tumor volume at 20 mg/kg, iv administered once every 3 days measured on day 6 post dose; type: functional
[9] = Antitumor activity against human A549 cells xenografted in BALB/c nude mouse assessed as reduction in tumor volume at 20 mg/kg, iv administered once every 3 days measured on day 21 post dose; type: functional
[10] = Antitumor activity against human A549 cells xenografted in BALB/c nude mouse assessed as reduction in tumor volume at 20 mg/kg, iv administered once every 3 days measured on day 15 post dose; type: functional
[11] = Antitumor activity against human A549 cells xenografted in BALB/c nude mouse assessed as reduction in tumor volume at 20 mg/kg, iv administered once every 3 days measured on day 23 post dose; type: functional
[12] = Antitumor activity against human A549 cells xenografted in BALB/c nude mouse assessed as reduction in tumor volume at 20 mg/kg, iv administered once every 3 days measured on day 12 post dose; type: functional
Mus musculus [13] = test: Toxicity in BALB/c nude mouse xenografted with human A549 cells assessed as change in body weight at 20 mg/kg, iv administered once every 3 days for 23 days measured twice per week during compound dosing; type: organism-based; details: in vivo
[14] = Antitumor activity against human A549 cells xenografted in BALB/c nude mouse assessed as reduction in tumor volume at 20 mg/kg, iv administered once every 3 days measured on day 18 post dose; type: functional
[15] = Antitumor activity against human A549 cells xenografted in BALB/c nude mouse assessed as reduction in tumor volume at 20 mg/kg, iv administered once every 3 days measured on day 9 post dose; type: functional
[16] = Antitumor activity against human A549 cells xenografted in BALB/c nude mouse assessed as reduction in tumor volume at 20 mg/kg, iv administered once every 3 days measured on day 3 post dose; type: functional
[17] = Cell cycle arrest in human A549 cells assessed as accumulation at G2 phase at 0.5 uM after 24 hrs by propidium iodide staining based flow cytometric analysis (reference value: 22.51%); type: functional
[18] = Cell cycle arrest in human A549 cells assessed as accumulation at G1 phase at 0.5 uM after 24 hrs by propidium iodide staining based flow cytometric analysis (reference value: 46.14%); type: functional
[19] = Cell cycle arrest in human A549 cells assessed as accumulation at S phase at 0.5 uM after 24 hrs by propidium iodide staining based flow cytometric analysis (reference value: 26.40%); type: functional
[20] = Antitumor activity against human A549 cells xenografted in BALB/c nude mouse assessed as tumor growth inhibition at 20 mg/kg, iv administered once every 3 days for 23 days relative to control; type: functional; details: read-out: TGI
[21] = Solubility of the compound in pH 7.9 Tris/glycine/SDS buffer at 50 uM; type: physicochemical; details: pH 7.9, 50 µM

SMILES | IC50 (cells [1]) | IC50 (cells [2]) | IC50 [3] | IC50 (cells [4]) | solubility [5] | inhibition [6] | further results
CCn1cc(-c2cccc(Cl)c2)c(=O)c2cc(F)c(N3CCNCC3)cc21 | 15.3 µM | 0.78 µM | 18.4 µM | 16.1 µM |  |  | 
CCn1cc(-c2ccc(C#N)cc2)c(=O)c2cc(F)c(N3CCNCC3)cc21 | 12.6 µM | 1.09 µM | 18.7 µM | 14.6 µM |  |  | 
CCn1cc(-c2ccc(Cl)cc2)c(=O)c2cc(F)c(N3CCNCC3)cc21 | 24 µM | 1.25 µM | 14.6 µM | 15.4 µM |  |  | 
CCn1cc(-c2ccccc2)c(=O)c2cc(F)c(N3CCNCC3)cc21 | 30.1 µM | 10.8 µM | 75.4 µM | 35.1 µM |  |  | 
O=c1c(-c2ccc(F)cc2)cn(C2CC2)c2cc(N3CCNCC3)c(F)cc12 | 10.6 µM | 1.68 µM | 15.1 µM | 14.9 µM | > 400 µM | Active | 
CC[C@@]1(O)C(=O)OCc2c1cc1n(c2=O)Cc2cc3cc(O)ccc3nc2-1 [HYDROXYCAMPTOTHECIN] |  |  |  |  |  |  | Activity (Mus musculus [7]): Toxic; T/C [8]: 68.37%; T/C [9]: 20%; T/C [10]: 27.97%; T/C [11]: 21.68%; T/C [12]: 29.44%; Activity (Mus musculus [13]): Toxic; T/C [14]: 23.92%; T/C [15]: 54.55%; T/C [16]: 91.99%
CC[C@@]1(O)C(=O)OCc2c1cc1n(c2=O)Cc2cc3ccccc3nc2-1 [CAMPTOTHECIN] | 1.52 µM | 0.46 µM | 1.27 µM | 1.41 µM |  |  | Activity [17]: 11.3%; Activity [18]: 33.2%; Activity [19]: 48.1%
COc1cccc(-c2cn(C3CC3)c3cc(N4CCNCC4)c(F)cc3c2=O)c1 | 0.91 µM | 0.12 µM | 0.69 µM | 0.92 µM | > 400 µM | Active | Activity (Mus musculus [7]): Non-Toxic; T/C [8]: 114.41%; T/C [9]: 71.52%; T/C [10]: 73.12%; T/C [11]: 64.72%; T/C [12]: 85.88%; inhibition in vivo at 20 mg/kg [20]: 42.8%; Activity [17]: 11.8%; Activity (Mus musculus [13]): Non-Toxic; Activity [18]: 48.2%; T/C [14]: 68.69%; Activity [19]: 32.2%; T/C [15]: 118.67%; T/C [16]: 140.57%
COc1ccc(-c2cn(C3CC3)c3cc(N4CCNCC4)c(F)cc3c2=O)cc1 | 20.8 µM | 1.87 µM | 18.9 µM | 16.5 µM | > 400 µM | Active | 
O=c1c(-c2cccc(Cl)c2)cn(C2CC2)c2cc(N3CCNCC3)c(F)cc12 | 0.86 µM | 0.11 µM | 0.61 µM | 0.89 µM | > 400 µM | Active | Activity (Mus musculus [7]): Non-Toxic; T/C [8]: 95.42%; T/C [9]: 73.07%; T/C [10]: 76.4%; T/C [11]: 74.32%; T/C [12]: 58.03%; inhibition in vivo at 20 mg/kg [20]: 29.2%; Activity [17]: 17.7%; Activity (Mus musculus [13]): Non-Toxic; Activity [18]: 44%; T/C [14]: 62.96%; Activity [19]: 31.2%; T/C [15]: 85.54%; T/C [16]: 87.18%
CCn1cc(-c2ccc(F)cc2)c(=O)c2cc(F)c(N3CCNCC3)cc21 | 56.2 µM | 11.4 µM | 69.6 µM | 60.9 µM |  |  | 
CCn1cc(-c2ccc(OC)cc2)c(=O)c2cc(F)c(N3CCNCC3)cc21 | 57.9 µM | 11.6 µM | 46.1 µM | 69 µM |  |  | 
CN1CCN(c2cc3c(cc2F)c(=O)c(-c2cccc(Cl)c2)cn3C2CC2)CC1 | 26.5 µM | 1.34 µM | 20.2 µM | 15.8 µM |  |  | 
CCn1cc(-c2cccc(OC)c2)c(=O)c2cc(F)c(N3CCNCC3)cc21 | 13 µM | 0.8 µM | 14.7 µM | 12.2 µM |  |  | 
O=c1c(-c2cccc(F)c2)cn(C2CC2)c2cc(N3CCNCC3)c(F)cc12 | 7.38 µM | 1.1 µM | 12 µM | 9.16 µM | > 400 µM | Active | 
COc1cccc(-c2cn(C3CC3)c3cc(N4CCN(C)CC4)c(F)cc3c2=O)c1 | 25.4 µM | 1.12 µM | 20.9 µM | 14.8 µM |  |  | 
O=c1c(-c2ccc(Cl)cc2)cn(C2CC2)c2cc(N3CCNCC3)c(F)cc12 | 8.02 µM | 0.65 µM | 12.9 µM | 9.3 µM | > 400 µM | Active | 
O=c1c(-c2ccccc2)cn(C2CC2)c2cc(N3CCNCC3)c(F)cc12 | 8.65 µM | 0.5 µM | 7.86 µM | 9.99 µM | > 400 µM | Active | 
CCn1cc(-c2cccc(F)c2)c(=O)c2cc(F)c(N3CCNCC3)cc21 | 27.8 µM | 3.06 µM | 27.3 µM | 21.9 µM |  |  | 
CCn1cc(-c2nc3ccc([N+](=O)[O-])cc3o2)c(=O)c2cc(F)c(N3CCNC(C)C3)c(F)c21 (configuration not stated) | 2.65 µM | 1.47 µM | 2.74 µM | 2.98 µM |  |  | solubility [21]: Insoluble
